Reference: patent publication US20250326718A1, “4-PHENYL-2-PYRROLIDINONES AND METHODS OF USING THEREOF” (North Carolina State University, priority 2022, published 2025)
≈ marks a conversion by molar mass, not a printed value. Where two headings read alike, the source gives them in different places.

Assays:
Type in all cases: cell-based
[1] = tested on: MSSA (ATCC 25923); assay: Broth microdilution MIC, MSSA ATCC 25923; conditions: Staphylococcus aureus
[2] = tested on: MRSA (ATCC 33591); assay: Broth microdilution MIC, MRSA ATCC 33591; conditions: Staphylococcus aureus; Tables 2-4; standardized conditions
Protocol: General information—Biological Assays. Methicillin-resistant and methicillin sensitive Staphylococcus aureus (MRSA and MSSA respectively) strains were obtained from the Laboratory of Professor Christian Melander (NCSU) (ATCC BAA 44 and 33591) and Dr. Jessica Gilbertie (ATCC 25923). Bacteria were kept in frozen stocks on glycerol at −80° C. until use. Bacteria was streaked onto tryptic-soy agar for colony isolation. Mueller-Hinton broth (MHB, 211443-BD), tryptic soy broth (TSB, Remel: R455052) and D-glucose (CAS: 492-62-6) were purchased from Fisher Scientific. Tryptic soy agar (TSA, cat. #22091) and Linezolid (cat. #P70014) were purchased from Sigma-Aldrich. Bacteria for biofilm inhibition were cultured overnight in TSB-G (tryptic soy broth with 0.5% glucose supplement) in 96 well plates. All assays were run in duplicate and repeated at least two separate times for MIC assays and at least three separate times for biofilm inhibition. All compounds were dissolved in molecular biology grade DMSO as 10 mM stock solutions. Optical densities were measured using a Thermo Scientific Genesys 20 spectrophotometer. Data for biofilm inhibition were collected using a BioTek ELx808 Microplate Reader. All graphs were generated and analyzed using GraphPad Prism 7.
Broth microdilution method for determination of minimum inhibitory concentrations. As prescribed by the Clinical and Laboratory Standards Institute (CLSI) M07-A8, Vol. 29 (2) MSSA (ATCC 25923) and MRSA (ATCC BAA 44 and 33591) was grown in MHB for 6-8 h; this culture was used to inoculate fresh MHB (5×10^5 CFU/mL). The resulting bacterial suspension was aliquoted (1 mL) into 1.5 mL Eppendorf tubes and compound was added from a 10 mM DMSO stock to achieve the desired initial starting concentration (typically 128 μg/mL). Linezolid (from a 10 mM DMSO stock) was used as a positive control. Inoculated media not treated with compound served as the negative control. The MIC was determined by microbroth dilution following the CLSI guidelines. The MIC was defined as the lowest concentration of antibiotic with no visible growth. The plate was sealed and incubated under stationary conditions at 37° C.
The antimicrobial activity of Compounds 1-15 was assessed initially against MSSA (ATCC 25923) and MRSA (ATCC 33591) strains. It was observed that almost all these compounds precipitated in aqueous solution at concentrations equal or higher than 8-16 μg/mL. In order to obtain preliminary results on the antimicrobial activity for these compounds, the standard conditions of the antimicrobial assays used where modified to favor the water solubility of these compounds.

[3] = tested on: S. aureus 29213; assay: Broth microdilution MIC, S. aureus 29213; conditions: Staphylococcus aureus
[4] = Tables 2-4, standardized conditions, read-out: MIC (S. aureus 25923)
[5] = Table 2, standardized conditions, read-out: MIC (S. aureus 25913)
[6] = Tables 3-4, standardized conditions, read-out: MIC (S. aureus 29213)

| Structure (SMILES) | MIC ([1]; antibiotic alone, read-out: MIC value against MSSA ATCC 25923) [µg/mL] | MIC [1, 4] [µg/mL] | MIC [2] [µg/mL] | MIC [3, 5] [µg/mL] | MIC [3, 6] [µg/mL] |
| --- | --- | --- | --- | --- | --- |
| O=C(O)c1cn(C2CC2)c2cc(N3CCNCC3)c(F)cc2c1=O [Ciprofloxacin, ciprofloxacin, reference compound] | 0.5 (≈ 1.51 µM) | – | – | – | – |
| CCC1C(c2ccc(C(F)(F)F)cc2)=C(O)C(=O)N1CCN (centres unmarked) [Compound 16, 1-(2-Aminoethyl)-5-ethyl-3-hydroxy-4-(4-(trifluoromethyl)phenyl)-1,5-dihydro-2H-pyrrol-2-one] | – | 128 (≈ 407 µM) | > 128 | 128 (≈ 407 µM) | – |
| CCC1C(c2ccc(C(F)(F)F)cc2)=C(O)C(=O)N1CCCCN (centres unmarked) [Compound 17, 1-(4-Aminobutyl)-5-ethyl-3-hydroxy-4-(4-(trifluoromethyl)phenyl)-1,5-dihydro-2H-pyrrol-2-one] | – | > 128 | > 128 | > 128 | – |
| CCC1C(c2ccc(C(F)(F)F)cc2)=C(O)C(=O)N1CCCCCCN (centres unmarked) [Compound 18, 1-(6-Aminohexyl)-5-ethyl-3-hydroxy-4-(4-(trifluoromethyl)phenyl)-1,5-dihydro-2H-pyrrol-2-one] | – | > 128 | > 128 | > 128 | – |
| CCC1C(c2ccc(C(F)(F)F)cc2)=C(O)C(=O)N1C1CCC(N)CC1 (centres unmarked) [Compound 19, 1-((1r,4r)-4-Aminocyclohexyl)-5-ethyl-3-hydroxy-4-(4-(trifluoromethyl)phenyl)-1,5-dihydro-2H-pyrrol-2-one] | – | 64 (≈ 174 µM) | 128 (≈ 347 µM) | 128 (≈ 347 µM) | – |
| CCC1C(c2ccc(C(F)(F)F)cc2)=C(O)C(=O)N1c1ccc(N)cc1 (centres unmarked) [Compound 20, 1-(4-Aminophenyl)-5-ethyl-3-hydroxy-4-(4-(trifluoromethyl)phenyl)-1,5-dihydro-2H-pyrrol-2-one] | – | > 128 | 64 (≈ 177 µM) | > 128 | – |
| CCC1C(c2ccc(C(F)(F)F)cc2)=C(O)C(=O)N1CCOCCN (centres unmarked) [Compound 21, 1-(2-(2-Aminoethoxy)ethyl)-5-ethyl-3-hydroxy-4-(4-(trifluoromethyl)phenyl)-1,5-dihydro-2H-pyrrol-2-one] | – | > 128 | > 128 | > 128 | – |
| CCC1C(c2ccc(C(F)(F)F)cc2)=C(O)C(=O)N1CCOCCOCCOCCN (centres unmarked) [Compound 22, 1-(2-(2-(2-(2-Aminoethoxy)ethoxy)ethoxy)ethyl)-5-ethyl-3-hydroxy-4-(4-(trifluoromethyl)phenyl)-1,5-dihydro-2H-pyrrol-2-one] | – | > 128 | > 128 | > 128 | – |
| CCC1C(c2ccc(C(F)(F)F)cc2)=C(O)C(=O)N1CCCNCCCCN (centres unmarked) [Compound 23, 1-(3-((4-Aminobutyl)amino)propyl)-5-ethyl-3-hydroxy-4-(4-(trifluoromethyl)phenyl)-1,5-dihydro-2H-pyrrol-2-one] | – | 16 (≈ 40.1 µM) | 32 to 64 (≈ 80.1 to 160 µM) | 64 (≈ 160 µM) | – |
| CCC1C(c2ccc(C(F)(F)F)cc2)=C(O)C(=O)N1CCCNCCCCNCCCN (centres unmarked) [Compound 24, 1-(3-((4-((3-Aminopropyl)amino)butyl)amino)propyl)-5-ethyl-3-hydroxy-4-(4-(trifluoromethyl)phenyl)-1,5-dihydro-2H-pyrrol-2-one] | – | 8 (≈ 17.5 µM) | 16 (≈ 35 µM) | 16 (≈ 35 µM) | – |
| CCC1C(c2ccc(C(F)(F)F)cc2)=C(O)C(=O)N1CCN1C(=O)C(O)=C(c2ccc(C(F)(F)F)cc2)C1CC (centres unmarked) [Compound 25, 1,1′-(Ethane-1,2-diyl)bis(5-ethyl-3-hydroxy-4-(4-(trifluoromethyl)phenyl)-1,5-dihydro-2H-pyrrol-2-one)] | – | > 128 | > 128 | > 128 | – |
| CCC1C(c2ccc(C(F)(F)F)cc2)=C(O)C(=O)N1CCCCN1C(=O)C(O)=C(c2ccc(C(F)(F)F)cc2)C1CC (centres unmarked) [Compound 26, 1,1′-(Butane-1,4-diyl)bis(5-ethyl-3-hydroxy-4-(4-(trifluoromethyl)phenyl)-1,5-dihydro-2H-pyrrol-2-one)] | – | > 128 | > 128 | > 128 | – |
| CCC1C(c2ccc(C(F)(F)F)cc2)=C(O)C(=O)N1CCCCCCN1C(=O)C(O)=C(c2ccc(C(F)(F)F)cc2)C1CC (centres unmarked) [Compound 27, 1,1′-(Hexane-1,6-diyl)bis(5-ethyl-3-hydroxy-4-(4-(trifluoromethyl)phenyl)-1,5-dihydro-2H-pyrrol-2-one)] | – | > 128 | > 128 | > 128 | – |
| CCC1C(c2ccc(C(F)(F)F)cc2)=C(O)C(=O)N1C1CCC(N2C(=O)C(O)=C(c3ccc(C(F)(F)F)cc3)C2CC)CC1 (centres unmarked) [Compound 28, 1,1′-((1r,4r)-Cyclohexane-1,4-diyl)bis(5-ethyl-3-hydroxy-4-(4-(trifluoromethyl)phenyl)-1,5-dihydro-2H-pyrrol-2-one)] | – | 8 (≈ 12.8 µM) | 32 (≈ 51.4 µM) | 32 (≈ 51.4 µM) | – |
| CCC1C(c2ccc(C(F)(F)F)cc2)=C(O)C(=O)N1CCOCCN1C(=O)C(O)=C(c2ccc(C(F)(F)F)cc2)C1CC (centres unmarked) [Compound 30, 1,1′-(Oxybis(ethane-2,1-diyl))bis(5-ethyl-3-hydroxy-4-(4-(trifluoromethyl)phenyl)-1,5-dihydro-2H-pyrrol-2-one)] | – | > 128 | > 128 | > 128 | – |
| CCC1C(c2ccc(C(F)(F)F)cc2)=C(O)C(=O)N1CCOCCOCCOCCN1C(=O)C(O)=C(c2ccc(C(F)(F)F)cc2)C1CC (centres unmarked) [Compound 31, 1,1′-(((Oxybis(ethane-2,1-diyl))bis(oxy))bis(ethane-2,1-diyl))bis(5-ethyl-3-hydroxy-4-(4-(trifluoromethyl)phenyl)-1,5-dihydro-2H-pyrrol-2-one)] | – | > 128 | > 128 | > 128 | – |
| CCC1C(c2ccc(C(F)(F)F)cc2)=C(O)C(=O)N1CCCCNCCCN1C(=O)C(O)=C(c2ccc(C(F)(F)F)cc2)C1CC (centres unmarked) [Compound 32, 5-Ethyl-1-(3-((4-(2-ethyl-4-hydroxy-5-oxo-3-(4-(trifluoromethyl)phenyl)-2,5-dihydro-1H-pyrrol-1-yl)butyl)amino)propyl)-3-hydroxy-4-(4-(trifluoromethyl)phenyl)-1,5-dihydro-2H-pyrrol-2-one] | – | 8 (≈ 12.2 µM) | 64 (≈ 97.9 µM) | 64 (≈ 97.9 µM) | – |
| CCC1C(c2ccc(C(F)(F)F)cc2)=C(O)C(=O)N1CCCNCCCCNCCCN1C(=O)C(O)=C(c2ccc(C(F)(F)F)cc2)C1CC (centres unmarked) [Compound 33, 1,1′-((Butane-1,4-diylbis(azanediyl))bis(propane-3,1-diyl))bis(5-ethyl-3-hydroxy-4-(4-(trifluoromethyl)phenyl)-1,5-dihydro-2H-pyrrol-2-one)] | – | 4 (≈ 5.63 µM) | – | 4 (≈ 5.63 µM) | – |
| CCC1C(c2ccc(C(F)(F)F)cc2)=C(O)C(=O)N1CCNCCNCCNCCN (centres unmarked) [Compound 34] | – | > 128 | > 128 | – | > 128 |
| CCC1C(c2ccc(C(F)(F)F)cc2)=C(O)C(=O)N1CCSCCN (centres unmarked) [Compound 36] | – | > 128 | > 128 | – | > 128 |
| CCC1C(c2ccc(C(F)(F)F)cc2)=C(O)C(=O)N1CCSCCN1C(=O)C(O)=C(c2ccc(C(F)(F)F)cc2)C1CC (centres unmarked) [Compound 37, 1,1′-(thiobis(ethane-2,1-diyl))bis(5-ethyl-3-hydroxy-4-(4-(trifluoromethyl)phenyl)-1,5-dihydro-2H-pyrrol-2-one)] | – | > 256 | > 256 | – | > 256 |
| O=C1C(O)=C(c2ccc(C(F)(F)F)cc2)C([C@H](O)c2ccccc2)N1c1ccc(Br)cc1 (stereo partly drawn) [Compound 47, 1-(4-Bromophenyl)-3-hydroxy-5-((R)-hydroxy(phenyl)methyl)-4-(4-(trifluoromethyl)phenyl)-1,5-dihydro-2H-pyrrol-2-one] | – | – | 8 (≈ 15.9 µM) | – | 8 (≈ 15.9 µM) |
